Measurements as given in US6399643B1, “Spiroimidazolidine derivatives, their preparation, their use and pharmaceutical preparations formed therefrom” (Aventis Pharma Deutschland GmbH, priority 1999, dated 2002).
pIC50: −log10 of the molar value. Where a name gives a salt, the structure may show the parent alone.

Target: T1, interaction between VCAM-1 and VLA-4 (Homo sapiens, UniProt P05556+P13612)
T1 construct: supplied in their natural form as surface molecules on human U937 cells; host or cells: human U937 cells (VLA-4, endogenous); the partner hVCAM-1(1-3)-IgG was made in house in transfected COS cells (ATCC CRL1651) and used as culture supernatant
Experiment: U937/VCAM-1 cell adhesion test (adhesion of U937 cells to hVCAM-1(1-3)-IgG)
Type: cell-based
Conditions: inhibition of adhesion of human U937 cells (ATCC CRL 1593) to hVCAM-1(1-3)-IgG
Text: A) U937/VCAM-1 Cell Adhesion Test
The test method used for the activity of the compounds of the formula I on the interaction between VCAM-1 and VLA-4 is the assay described below, which is specific for this interaction. The cellular binding components, that is the VLA-4 integrins, are supplied in their natural form as surface molecules on human U937 cells (ATCC CRL 1593), which belong to the leukocytes group. The specific binding components used are genetically engineered recombinant soluble fusion proteins, consisting of the extracytoplasmic domain of human VCAM-1 and the constant region of a human immunoglobulin of the subclass IgG1.
Assay for the Measurement of the Adhesion of U937 Cells (ATCC CRL 1593) to hVCAM-1 (1-3)-IgG
1. Preparation of Human VCAM-1(1-3)-IgG and Human CD4-IgG
A genetic construct for the expression of the extracellular domain of human VCAM-1, combined with the genetic sequence of the heavy chain of human immunoglobulin IgG1 (hinge, CH2 and CH3 regions) (from Brian Seed, Massachusetts General Hospital, Boston, USA; cf. Damle and Aruffo, Proc. Natl. Acad. Sci. USA 1991, 88, 6403), was employed. The soluble fusion protein hVCAM-1(1-3)-IgG contained the three aminoterminal extracellular immunoglobulin-like domains of human VCAM-1 (Damle and Aruffo, Proc. Natl. Acad. Sci. USA 1991, 88, 6403). CD4-IgG (Zettlmeissl et al., DNA and Cell Biology 1990, 9, 347) served as a fusion protein for negative controls. The recombinant proteins were expressed as soluble proteins after DEAE/dextran-mediated DNA transfection in COS cells (ATCC CRL1651) according to standard procedures (Ausubel et al., Current protocols in molecular biology, John Wiley & Sons, Inc., 1994).
2. Assay for the Measurement of the Adhesion of U937 Cells to hVCAM-1(1-3)-IgG
2.1 96-well microtiter test plates (Nunc Maxisorb) were incubated at room temperature for 1 hour with 100 μl/well of a goat-anti-human IgG antibody solution (10 μg/ml in 50 mM tris, pH 9.5). After removal of the antibody solution, washing was carried out once with PBS.
2.2 150 μl/well of a blocking buffer (1% BSA in PBS) were incubated on the plates at room temperature for 0.5 hour. After removal of the blocking buffer, washing was carried out once with PBS.
2.3 100 μl per well of a cell culture supernatant of transfected COS cells were incubated on the plates at room temperature for 1.5 hours. The COS cells were transfected with a plasmid which codes for the three N-terminal immunoglobulin-like domains of VCAM-1, coupled to the Fc portion of human IgG1 (hVCAM-1 (1-3)-IgG). The content of hVCAM-1(1-3)-IgG was about 0.5-1 μg/ml. After removing the culture supernatant, washing was carried out once with PBS.
2.4 The plates were incubated at room temperature for 20 minutes with 100 μl/well of Fc receptor blocking buffer (1 mg/ml of γ-globulin, 100 mM NaCl, 100 μM MgCl2, 100 μM MnCl2, 100 μM CaCl2, 1 mg/ml of BSA in 50 mM HEPES, pH 7.5). After removal of the Fc receptor blocking buffer, washing was carried out once with PBS.
2.5 20 μl of binding buffer (100 μM NaCl, 100 μM MgCl2, 100 μM MnCl2, 100 μM CaCl2, 1 mg/ml of BSA in 50 mM HEPES, pH 7.5) were initially introduced, and the substances to be tested were added in 10 μl of binding buffer and incubated for 20 minutes. The controls used were antibodies against VCAM-1(BBT, No. BBA6) and against VLA-4(Immunotech, No. 0764).
2.6 U937 cells were incubated in Fc receptor blocking buffer for 20 minutes and then pipetted in at a concentration of 1×10^6/ml and in an amount of 100 μl per well ([…]).
2.7 The plates were slowly immersed at an angle of 45° in stop buffer (100 mM NaCl, 100 μM MgCl2, 100 μM MnCl2, 100 μM CaCl2 in 25 mM Tris, pH 7.5) and shaken off. The process was repeated.
2.8 50 μl/well of a dye solution ([…] of Hoechst Dye 33258, 4% formaldehyde, 0.5% Triton X-100 in PBS) were then incubated on the plates for 15 minutes. […]

T1 sequence (P13612 34-1032): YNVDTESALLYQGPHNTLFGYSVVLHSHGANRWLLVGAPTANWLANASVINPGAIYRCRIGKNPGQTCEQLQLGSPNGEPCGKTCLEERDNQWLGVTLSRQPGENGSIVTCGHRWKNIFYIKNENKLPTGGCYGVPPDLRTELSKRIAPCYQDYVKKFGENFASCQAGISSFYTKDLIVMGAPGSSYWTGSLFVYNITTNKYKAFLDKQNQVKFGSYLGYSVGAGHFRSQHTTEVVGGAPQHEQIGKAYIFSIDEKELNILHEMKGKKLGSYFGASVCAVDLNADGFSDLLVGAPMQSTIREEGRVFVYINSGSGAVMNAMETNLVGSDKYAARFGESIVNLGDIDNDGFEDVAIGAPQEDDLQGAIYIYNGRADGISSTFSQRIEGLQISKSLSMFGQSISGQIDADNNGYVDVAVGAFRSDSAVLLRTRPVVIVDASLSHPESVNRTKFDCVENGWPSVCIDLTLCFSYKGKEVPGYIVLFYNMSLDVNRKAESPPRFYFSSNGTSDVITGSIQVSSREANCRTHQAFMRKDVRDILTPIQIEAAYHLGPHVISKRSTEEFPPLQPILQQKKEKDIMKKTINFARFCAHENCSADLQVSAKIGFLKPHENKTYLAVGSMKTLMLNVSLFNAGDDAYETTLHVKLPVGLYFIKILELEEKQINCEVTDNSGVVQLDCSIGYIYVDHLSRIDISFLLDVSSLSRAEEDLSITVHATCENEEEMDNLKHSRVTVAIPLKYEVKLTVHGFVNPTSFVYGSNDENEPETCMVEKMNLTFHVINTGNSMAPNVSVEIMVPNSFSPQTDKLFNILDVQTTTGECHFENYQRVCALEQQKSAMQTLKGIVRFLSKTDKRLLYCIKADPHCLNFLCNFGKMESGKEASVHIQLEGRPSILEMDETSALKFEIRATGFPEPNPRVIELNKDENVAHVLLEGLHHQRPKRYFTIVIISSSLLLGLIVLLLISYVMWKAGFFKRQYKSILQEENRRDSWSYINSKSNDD
T1 sequence (P05556 21-798): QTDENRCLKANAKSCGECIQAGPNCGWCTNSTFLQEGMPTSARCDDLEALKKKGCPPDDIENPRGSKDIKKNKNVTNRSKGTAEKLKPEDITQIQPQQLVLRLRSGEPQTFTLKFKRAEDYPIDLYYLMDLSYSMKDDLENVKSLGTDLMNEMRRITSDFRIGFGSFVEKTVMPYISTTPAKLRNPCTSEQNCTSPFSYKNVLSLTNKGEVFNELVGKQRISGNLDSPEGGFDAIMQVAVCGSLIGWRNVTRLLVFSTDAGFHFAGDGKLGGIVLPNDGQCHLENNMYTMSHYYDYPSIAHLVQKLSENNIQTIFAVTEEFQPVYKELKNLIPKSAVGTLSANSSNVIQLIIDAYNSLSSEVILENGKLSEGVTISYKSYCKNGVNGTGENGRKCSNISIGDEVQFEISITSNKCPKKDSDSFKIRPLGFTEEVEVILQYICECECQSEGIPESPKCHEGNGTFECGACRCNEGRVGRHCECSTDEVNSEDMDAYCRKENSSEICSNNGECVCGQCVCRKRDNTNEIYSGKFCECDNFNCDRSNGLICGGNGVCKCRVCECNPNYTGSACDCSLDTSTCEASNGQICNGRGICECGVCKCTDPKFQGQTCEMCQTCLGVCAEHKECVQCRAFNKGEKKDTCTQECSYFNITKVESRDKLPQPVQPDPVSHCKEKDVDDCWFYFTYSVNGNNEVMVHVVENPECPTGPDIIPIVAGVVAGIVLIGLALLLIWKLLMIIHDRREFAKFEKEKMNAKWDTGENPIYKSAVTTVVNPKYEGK

| pIC50 | Structure (SMILES) |
| --- | --- |
| 8.74 | Cc1ccccc1NC(=O)Nc1ccc(CN2C(=O)N([C@@H](CC(C)C)C(=O)N[C@@H](CC(=O)O)c3ccc4c(c3)OCCO4)C(=O)C23CCCCC3)cc1 [Example 34, (S)-3-((S)-2-(4,4-Pentamethylene-3-(4-(3-(2-methylphenyl)ureido)benzyl)-2,5-dioxoimidazolidin-1-yl)-2-(2-methylpropyl)acetylamino)-3-(3,4-ethylenedioxyphenyl)propionic acid] |
| 8.47 | Cc1ccccc1NC(=O)Nc1ccc(CN2C(=O)N([C@@H](CC(C)C)C(=O)N[C@@H](CC(=O)O)c3ccc4c(c3)OCCO4)C(=O)C23CCCCC3)cc1 [Example 35, (S)-3-((S)-2-(4,4-Pentamethylene-3-(4-(3-(2-methylphenyl)ureido)benzyl)-2,5-dioxoimidazolidin-1-yl)-2-(2-methylpropyl)acetylamino)-3-(3,4-ethylenedioxyphenyl)propionic acid sodium salt] |
| 8.89 | COc1cc(CN2C(=O)N([C@@H](CC(C)C)C(=O)N[C@@H](CC(=O)O)c3ccc(OC)c(OC)c3)C(=O)C23CCCCC3)ccc1NC(=O)Nc1ccccc1C [Example 37, (S)-3-((S)-2-(4,4-Pentamethylene-3-(4-(3-(2-methylphenyl)ureido)-3-methoxybenzyl)-2,5-dioxoimidazolidin-1-yl)-2-(2-methylpropyl)acetylamino)-3-(3,4-dimethoxyphenyl)propionic acid] |
| 8.80 | COc1cc(CN2C(=O)N([C@@H](CC(C)C)C(=O)N[C@@H](CC(=O)O)c3ccc(OC)c(OC)c3)C(=O)C23CCCCC3)ccc1NC(=O)Nc1ccccc1C [Example 38, (S)-3-((S)-2-(4,4-Pentamethylene-3-(4-(3-(2-methylphenyl)ureido)-3-methoxybenzyl)-2,5-dioxoimidazolidin-1-yl)-2-(2-methylpropyl)acetylamino)-3-(3,4-dimethoxyphenyl)propionic acid tromethamine salt] |
| 9.10 | COc1ccc([C@H](CC(=O)O)NC(=O)[C@H](CC2CC2)N2C(=O)N(Cc3ccc(NC(=O)Nc4ccccc4C)cc3)C3(CCCCC3)C2=O)cc1OC [Example 39, (S)-3-((S)-2-(4,4-Pentamethylene-3-(4-(3-(2-methylphenyl)ureido)benzyl)-2,5-dioxoimidazolidin-1-yl)-2-cyclopropylmethylacetylamino)-3-(3,4-dimethoxyphenyl)propionic acid] |
| 8.68 | COc1ccc([C@H](CC(=O)O)NC(=O)[C@H](CC2CC2)N2C(=O)N(Cc3ccc(NC(=O)Nc4ccccc4C)cc3)C3(CCCCC3)C2=O)c(OC)c1 [Example 40, (S)-3-((S)-2-(4,4-Pentamethylene-3-(4-(3-(2-methylphenyl)ureido)benzyl)-2,5-dioxoimidazolidin-1-yl)-2-cyclopropylmethylacetylamino)-3-(2,4-dimethoxyphenyl)propionic acid] |
| 8.64 | COc1ccc([C@H](CC(=O)O)NC(=O)[C@H](CC2CC2)N2C(=O)N(Cc3ccc(NC(=O)Nc4ccccc4C)cc3)C3(CCCCC3)C2=O)c(OC)c1 [Example 41, (S)-3-((S)-2-(4,4-Pentamethylene-3-(4-(3-(2-methylphenyl)ureido)benzyl)-2,5-dioxoimidazolidin-1-yl)-2-cyclopropylmethylacetylamino)-3-(2,4-dimethoxyphenyl)propionic acid sodium salt] |

Continued, compound first:

| Structure (SMILES) | pIC50 |
| --- | --- |
| COc1ccc([C@H](CC(=O)O)NC(=O)[C@H](CC(C)C)N2C(=O)N(Cc3ccc(NC(=O)Nc4ccccc4C)cc3)C3(CCCCC3)C2=O)cc1 [Example 26, (S)-3-((S)-2-(4,4-Pentamethylene-3-(4-(3-(2-methylphenyl)ureido)benzyl)-2,5-dioxoimidazolidin-1-yl)-2-(2-methylpropyl)acetylamino)-3-(4-methoxyphenyl)propionic acid] | 8.59 |
| COc1ccc([C@H](CC(=O)O)NC(=O)[C@H](CC(C)C)N2C(=O)N(Cc3ccc(NC(=O)Nc4ccccc4C)cc3)C3(CCCCC3)C2=O)cc1 [Example 27, (S)-3-((S)-2-(4,4-Pentamethylene-3-(4-(3-(2-methylphenyl)ureido)benzyl)-2,5-dioxoimidazolidin-1-yl)-2-(2-methylpropyl)acetylamino)-3-(4-methoxyphenyl)propionic acid tromethamine salt] | 8.47 |
| COc1ccc([C@H](CC(=O)O)NC(=O)[C@H](CC(C)C)N2C(=O)N(Cc3ccc(NC(=O)Nc4ccccc4C)cc3)C3(CCCCC3)C2=O)c(OC)c1 [Example 28, (S)-3-((S)-2-(4,4-Pentamethylene-3-(4-(3-(2-methyphenyl)ureido)benzyl)-2,5-dioxoimidazolidin-1-yl)-2-(2-methylpropyl)acetylamino)-3-(2,4-dimethoxyphenyl)propionic acid] | 8.68 |
| COc1ccc([C@H](CC(=O)O)NC(=O)[C@H](CC(C)C)N2C(=O)N(Cc3ccc(NC(=O)Nc4ccccc4C)cc3)C3(CCCCC3)C2=O)c(OC)c1 [Example 29, (S)-3-((S)-2-(4,4-Pentamethylene-3-(4-(3-(2-methylphenyl)ureido)benzyl-2,5-dioxoimidazolidin-1-yl)-2-(2-methylpropyl)acetylamino)-3-(2,4-dimethoxyphenyl)propionic acid tromethamine salt] | 8.72 |
| COc1ccc([C@H](CC(=O)O)NC(=O)[C@H](CC(C)C)N2C(=O)N(Cc3ccc(NC(=O)Nc4ccccc4C)cc3)C3(CCCCC3)C2=O)c(OC)c1 [Example 30, (S)-3-((S)-2-(4,4-Pentamethylene-3-(4-(3-(2-methylphenyl)ureido)benzyl)-2,5-dioxoimidazolidin-1-yl)-2-(2-methylpropyl)acetylamino)-3-(2,4-dimethoxyphenyl)propionic acid sodium salt] | 8.44 |
| COc1ccc([C@H](CC(=O)O)NC(=O)[C@H](CC(C)C)N2C(=O)N(Cc3ccc(NC(=O)Nc4ccccc4C)cc3)C3(CCCCC3)C2=O)cc1OC [Example 31, (S)-3-((S)-2-(4,4-Pentamethylene-3-(4-(3-(2-methylphenyl)ureido)benzyl)-2,5-dioxoimidazolidin-1-yl)-2-(2-methylpropyl)acetylamino)-3-(3,4-dimethoxyphenyl)propionic acid] | 9.10 |
| COc1ccc([C@H](CC(=O)O)NC(=O)[C@H](CC(C)C)N2C(=O)N(Cc3ccc(NC(=O)Nc4ccccc4C)cc3)C3(CCCCC3)C2=O)cc1OC [Example 32, (S)-3-((S)-2-(4,4-Pentamethylene-3-(4-(3-(2-methylphenyl)ureido)benzyl)-2,5-dioxoimidazolidin-1-yl)-2-(2-methylpropyl)acetylamino)-3-(3,4-dimethoxyphenyl)propionic acid tromethamine salt] | 9.22 |
| COc1ccc([C@H](CC(=O)O)NC(=O)[C@H](CC(C)C)N2C(=O)N(Cc3ccc(NC(=O)Nc4ccccc4C)cc3)C3(CCCCC3)C2=O)cc1OC [Example 33, (S)-3-((S)-2-(4,4-Pentamethylene-3-(4-(3-(2-methylphenyl)ureido)benzyl)-2,5-dioxoimidazolidin-1-yl)-2-(2-methylpropyl)acetylamino)-3-(3,4-dimethoxyphenyl)propionic acid sodium salt] | 8.89 |
